What was measured:
[1] = Pharmacokinetic profiles in dogs; format: in vivo; details: Dog; for F: iv dose 1 mg/kg, oral dose generally 10 mg/kg; for clearance / AUC(0-t) / half-life / Vd: iv dosing, 1 mg/kg; for AUC(0-t) / half-life / Vd: plasma; for Vd: read-out: Vss
Procedure: (§1) The compounds disclosed herein are assessed in pharmacokinetic studies in mice, rats, dogs or monkeys. The compounds are administered as a water solution, 2% HPMC+1% TWEEN®80 in water solution, 5% DMSO+5% solutol in saline, 4% MC suspension or capsule. For the intravenous administration, the animals are generally given at 1 or 2 mg/kg dose. For the oral (p.o.) dosing, mice and rats are generally given 5 or 10 mg/kg dose, and dogs and monkeys are generally given 10 mg/kg dose. The blood samples (0.3 mL) are drawn at 0.25, 0.5, 1.0, 2.0, 3.0, 4.0, 6.0, 8.0, 12 and 24 h time points or 0.083, 0.25, 0.5, 1.0, 2.0, 4.0, 6.0, 8.0 and 24 h time points and centrifuged at 3,000 or 4000 rpm for 2 to 10 min. The plasma solutions are collected and stored at −20° C. or −70° C. until analyzed by LC/MS/MS as described above.

PI3K p110α/p85α (h) = biological target: T1, PI3K p110α/p85α (h) (Homo sapiens, UniProt P42336); assay: PI3K p110α/p85α (h) non-radioactive (HTRF) assay; format: biochemical
T1 construct: purchased Millipore UK Ltd (assays run there as a service)
T1 sequence (P42336 whole entry): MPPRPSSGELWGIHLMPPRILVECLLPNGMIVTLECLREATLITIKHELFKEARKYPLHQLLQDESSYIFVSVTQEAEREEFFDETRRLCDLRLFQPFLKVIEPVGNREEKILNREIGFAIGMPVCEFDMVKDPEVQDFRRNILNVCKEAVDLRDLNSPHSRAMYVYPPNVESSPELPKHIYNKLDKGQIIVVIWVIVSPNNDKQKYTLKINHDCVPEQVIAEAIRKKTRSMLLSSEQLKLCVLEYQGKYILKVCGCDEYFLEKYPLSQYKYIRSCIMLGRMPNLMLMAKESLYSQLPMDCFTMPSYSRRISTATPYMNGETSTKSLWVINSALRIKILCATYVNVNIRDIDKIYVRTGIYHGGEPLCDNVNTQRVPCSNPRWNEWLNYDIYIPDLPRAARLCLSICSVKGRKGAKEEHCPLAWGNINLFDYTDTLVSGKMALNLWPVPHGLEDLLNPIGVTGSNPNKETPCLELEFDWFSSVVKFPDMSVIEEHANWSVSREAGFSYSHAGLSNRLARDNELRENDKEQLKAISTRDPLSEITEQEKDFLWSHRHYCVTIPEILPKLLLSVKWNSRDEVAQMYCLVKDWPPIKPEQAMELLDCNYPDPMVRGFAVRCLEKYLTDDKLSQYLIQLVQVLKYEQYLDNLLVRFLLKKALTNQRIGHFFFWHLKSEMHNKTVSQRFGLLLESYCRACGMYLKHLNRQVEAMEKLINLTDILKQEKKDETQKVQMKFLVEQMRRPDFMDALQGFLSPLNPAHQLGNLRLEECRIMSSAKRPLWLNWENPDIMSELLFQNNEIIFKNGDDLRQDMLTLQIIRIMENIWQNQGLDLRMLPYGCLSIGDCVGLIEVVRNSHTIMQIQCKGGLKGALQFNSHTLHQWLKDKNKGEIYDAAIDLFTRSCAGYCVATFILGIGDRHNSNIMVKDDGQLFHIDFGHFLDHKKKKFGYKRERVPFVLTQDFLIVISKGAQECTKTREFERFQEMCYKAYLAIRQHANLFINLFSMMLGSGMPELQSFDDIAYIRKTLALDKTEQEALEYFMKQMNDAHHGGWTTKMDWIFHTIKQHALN
T1 sequence (P27986 whole entry partner): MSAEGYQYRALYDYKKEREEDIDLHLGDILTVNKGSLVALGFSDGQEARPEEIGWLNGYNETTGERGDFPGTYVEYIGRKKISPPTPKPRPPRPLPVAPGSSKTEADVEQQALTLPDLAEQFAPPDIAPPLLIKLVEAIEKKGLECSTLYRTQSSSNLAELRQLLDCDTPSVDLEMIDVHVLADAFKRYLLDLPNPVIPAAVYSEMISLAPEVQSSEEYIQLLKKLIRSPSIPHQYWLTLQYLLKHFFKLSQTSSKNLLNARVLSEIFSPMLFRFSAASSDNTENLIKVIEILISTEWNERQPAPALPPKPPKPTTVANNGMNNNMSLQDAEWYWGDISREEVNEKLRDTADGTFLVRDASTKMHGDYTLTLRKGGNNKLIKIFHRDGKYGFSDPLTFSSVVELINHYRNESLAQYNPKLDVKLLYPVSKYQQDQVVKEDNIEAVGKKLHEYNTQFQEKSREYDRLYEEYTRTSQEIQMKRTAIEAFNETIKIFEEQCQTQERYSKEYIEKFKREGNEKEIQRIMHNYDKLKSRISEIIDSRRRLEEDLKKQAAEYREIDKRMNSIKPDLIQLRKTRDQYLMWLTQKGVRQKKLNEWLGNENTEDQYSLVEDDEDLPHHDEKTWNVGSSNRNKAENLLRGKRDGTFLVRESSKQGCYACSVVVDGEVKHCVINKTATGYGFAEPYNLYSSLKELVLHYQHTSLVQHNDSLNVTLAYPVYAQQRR
Procedure: PI3K p110α/p85α (h) [Non-Radioactive Assay]
(§2) PI3K p110α/p85α (h) is incubated in assay buffer containing 10 μM phosphatidylinositol 4,5-bisphosphate and MgATP (concentration as required). The reaction is initiated by the addition of the ATP solution. After incubation for 30 minutes at room temperature, the reaction is stopped by the addition of stop solution containing EDTA and biotinylated phosphatidylinositol-3,4,5-trisphosphate. Finally, detection buffer is added, which contains europium-labelled anti-GST monoclonal antibody, GST-tagged GRP1 PH domain and streptavidin allophycocyanin. The plate is then read in time-resolved fluorescence mode and the homogenous time-resolved fluorescence (HTRF) signal is determined according to the formula HTRF=10000×(Em665 nm/Em620 nm).
(§3) The kinase assays described herein were performed at Millipore UK Ltd, Dundee Technology Park, Dundee DD2 1SW, UK.

[2] = Pharmacokinetic profiles in mice; format: in vivo; details: Mouse; for F: iv dose 1 mg/kg, oral dose generally 5 or 10 mg/kg; for clearance / AUC(0-t) / half-life / Vd: iv dosing, 1 mg/kg; for AUC(0-t) / half-life / Vd: plasma; for Vd: read-out: Vss
Procedure: as §1

[3] = Compound stability in rat liver microsomes; format: in vitro ADME; details: for half-life at 5 μM / CLint scaled at 5 μM: pH 7.4; for CLint scaled at 5 μM: rat liver microsomes, in vivo CLint extrapolated
Procedure: (§4) Human or rat liver microsomes incubations were conducted in duplicate in polypropylene tubes. The typical incubation mixtures consisted of human or rat liver microsomes (0.5 mg protein/mL), compounds of interest (5 μM) and NADPH (1.0 mM) in a total volume of 200 μL potassium phosphate buffer (PBS, 100 mM, pH=7.4). Compounds were dissolved in DMSO and diluted with PBS such that the final concentration of DMSO was 0.05%. The enzymatic reactions were commenced with the addition of protein after a 3-min preincubation and incubated in a water bath open to the air at 37° C. Reactions were terminated at various time points (0, 5, 10, 15, 30, 60 min) by adding equal volume of ice-cold acetonitrile. The samples were stored at −80° C. until LC/MS/MS assays.
(§5) The concentrations of compounds in the incubation mixtures of human or rat liver microsomes were determined by a LC/MS/MS method. The ranges of the linearity in the concentration range were determined for each tested compounds.
(§6) A parallel incubation was performed using denatured microsomes as the negative control, and reactions were terminated at various time points (0, 15, 60 min) after incubation at 37° C.
(§7) Dextromethorphan (70 μM) was selected as the positive control, and reactions were terminated at various time points (0, 5, 10, 15, 30, 60 min) after incubation at 37° C. Both positive and negative control samples were included in each assay to ensure the integrity of the microsomal incubation system.
(§8) The concentrations of compounds in human or rat liver microsome incubations were plotted as a percentage of the relevant zero time point control for each reaction. The in vivo CLint were extrapolated (ref.: Naritomi Y, Terashita S, Kimura S, Suzuki A, Kagayama A, Sugiyama Y. “Prediction of human hepatic clearance from in vivo animal experiments and in vitro metabolic studies with liver microsomes from animals and humans”, Drug Metabolism and Disposition, 2001, 29, 1316-1324).

[4] = Compound stability in human liver microsomes; format: in vitro ADME; details: for half-life at 5 μM / CLint scaled at 5 μM: pH 7.4; for CLint scaled at 5 μM: human liver microsomes, in vivo CLint extrapolated
Procedure: as §4, §5, §6, §7, §8

PI3K p110β/p85α (h) = biological target: T2, PI3K p110β/p85α (h) (Homo sapiens, UniProt P42338); assay: PI3K p110β/p85α (h) non-radioactive (HTRF) assay; format: biochemical
T2 construct: purchased Millipore UK Ltd (assays run there as a service)
T2 sequence (P42338 whole entry): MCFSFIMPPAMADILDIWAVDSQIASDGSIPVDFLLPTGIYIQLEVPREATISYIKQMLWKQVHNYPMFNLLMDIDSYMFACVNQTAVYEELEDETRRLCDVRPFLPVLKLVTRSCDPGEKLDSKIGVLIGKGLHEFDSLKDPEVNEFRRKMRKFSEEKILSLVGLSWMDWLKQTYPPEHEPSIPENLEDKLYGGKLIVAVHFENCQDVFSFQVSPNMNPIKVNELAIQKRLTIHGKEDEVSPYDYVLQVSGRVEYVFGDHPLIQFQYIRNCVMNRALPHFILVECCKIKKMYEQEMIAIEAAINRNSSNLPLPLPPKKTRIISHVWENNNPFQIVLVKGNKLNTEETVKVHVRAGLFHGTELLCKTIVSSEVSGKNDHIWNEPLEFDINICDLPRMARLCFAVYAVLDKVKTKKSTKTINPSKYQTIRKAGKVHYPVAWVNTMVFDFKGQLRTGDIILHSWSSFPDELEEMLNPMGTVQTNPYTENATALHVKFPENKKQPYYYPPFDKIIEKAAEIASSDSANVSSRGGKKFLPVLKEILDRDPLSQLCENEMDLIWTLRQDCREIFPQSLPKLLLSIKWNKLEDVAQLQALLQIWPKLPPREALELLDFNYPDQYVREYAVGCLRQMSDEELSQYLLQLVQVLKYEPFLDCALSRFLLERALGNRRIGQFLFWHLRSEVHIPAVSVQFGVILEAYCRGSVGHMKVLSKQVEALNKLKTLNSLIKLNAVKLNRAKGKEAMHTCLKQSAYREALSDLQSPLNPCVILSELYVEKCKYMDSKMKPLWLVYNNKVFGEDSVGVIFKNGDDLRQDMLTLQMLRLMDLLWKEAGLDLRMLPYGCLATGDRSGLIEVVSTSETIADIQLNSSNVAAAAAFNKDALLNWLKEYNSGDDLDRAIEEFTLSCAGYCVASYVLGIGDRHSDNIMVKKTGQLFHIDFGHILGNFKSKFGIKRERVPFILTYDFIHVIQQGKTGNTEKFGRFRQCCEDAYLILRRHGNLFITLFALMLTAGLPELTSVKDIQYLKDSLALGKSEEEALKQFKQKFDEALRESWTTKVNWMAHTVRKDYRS
T2 sequence (P27986 whole entry partner): as the sequence (P27986 whole entry partner) above
Procedure: PI3K p110β/p85α (h) [Non-Radioactive Assay]
as §2, with “(p110β/p85α)” for “p110α/p85α”, “phosphatidylinositol-4,5-bisphosphate” for “phosphatidylinositol 4,5-bisphosphate”, “MgATP mix.” for “ATP solution.”, “streptavidin-allophycocyanin.” for “streptavidin allophycocyanin.”
as §3

[5] = Pharmacokinetic profiles in monkeys; format: in vivo; details: Monkey; for F: iv dose 1 mg/kg, oral dose generally 10 mg/kg; for Cl/F / AUC(0-t) / half-life / Vd: iv dosing, 1 mg/kg; for AUC(0-t) / half-life / Vd: plasma; for Vd: read-out: Vss
Procedure: as §1

[6] = rat liver microsomes 0.5 mg protein/mL, compound 5 μM, NADPH, 37° C.
[7] = human liver microsomes 0.5 mg protein/mL, compound 5 μM, NADPH, 37° C.

| F [1] [%] | clearance [1] [mL/min/kg] | AUC(0-t) [1] [ng·h/mL] | half-life [1] [h] | Vd [1] [L/kg] | F [2] [%] | clearance [2] [mL/min/kg] | AUC(0-t) [2] [ng·h/mL] | half-life [2] [h] | Vd [2] [L/kg] | half-life at 5 μM [3, 6] [h] | CLint scaled at 5 μM [3] [mL/min/kg] | half-life at 5 μM [4, 7] [h] | CLint scaled at 5 μM [4] [mL/min/kg] | IC50 (PI3K p110β/p85α (h)) [nM] | F [5] [%] | Cl/F [5] [mL/min/kg] | AUC(0-t) [5] [ng·h/mL] | half-life [5] [h] | Vd [5] [L/kg] | Structure (SMILES) | also measured |
| --- | --- | --- | --- | --- | --- | --- | --- | --- | --- | --- | --- | --- | --- | --- | --- | --- | --- | --- | --- | --- | --- |
| 108.5 | 1.83 | 9070 | 6.13 | 0.19 | 70.0 | 2.83 | 5810 | 1.11 | 0.18 | 2.56 | 16.2 | 4.99 | 5.81 | 22 | 24.0 | 3 | 5740 | 4.64 | 0.42 | COc1ncc(-c2ccn3ncc(C#CCO)c3c2)cc1NS(=O)(=O)c1ccc(F)cc1F [Ex. 4, 2,4-difluoro-N-(5-(3-(3-hydroxyprop-1-yn-1-yl)pyrazolo[1,5-a]pyridin-5-yl)-2-methoxypyridin-3-yl)benzenesulfonamide] | IC50 (PI3K p110α/p85α (h)): 1 nM |
| – | – | – | – | – | – | – | – | – | – | – | – | – | – | 45 | – | – | – | – | – | COc1ncc(-c2ccn3ncc(C#N)c3n2)cc1NS(=O)(=O)c1ccc(F)cc1F [Ex. 2, N-(5-(3-cyanopyrazolo[1,5-a]pyrimidin-5-yl)-2-methoxypyridin-3-yl)-2,4-difluorobenzenesulfonamide] | T1/2 [3, 6]: ∞; T1/2 [4, 7]: ∞ |
| 108.5 | 4.5 | 3670 | 0.67 | 0.23 | 79.3 | 0.33 | 57100 | 5.45 | 0.13 | 9.59 | 4.32 | 40.1 | 0.72 | 41 | 59.8 | 2.67 | 5980 | 9.7 | 0.92 | COc1ncc(-c2ccn3ncc(C#N)c3c2)cc1NS(=O)(=O)c1ccc(F)cc1F [Ex. 3, N-(5-(3-cyanopyrazolo[1,5-a]pyridin-5-yl)-2-methoxypyridin-3-yl)-2,4-difluorobenzenesulfonamide] | – |
| – | – | – | – | – | – | – | – | – | – | 2.92 | 14.2 | 11.8 | 2.45 | 84 | – | – | – | – | – | COc1ncc(-c2ccn3ncc(C#CCO)c3n2)cc1NS(=O)(=O)c1ccc(F)cc1F [Ex. 1, 2,4-difluoro-N-(5-(3-(3-hydroxyprop-1-yn-1-yl)pyrazolo[1,5-a]pyrimidin-5-yl)-2-methoxypyridin-3-yl)benzenesulfonamide] | – |

Source: US9573953B2, “Heteroaromatic compounds as PI3 kinase modulators and methods of use” (CALITOR SCIENCES, LLC, priority 2013, dated 2017)
